Source: ChEMBL document CHEMBL1201862, “PubChem BioAssay data set” (2004)
Active and inactive are the calls of the source.

Tests used:
[1] = Counterscreen for activators of the function of SWI/SNF related, matrix associated, actin dependent regulator of chromatin, subfamily a, member 2 (SMARCA2, BRM): Luminescence-based cell-based high throughput dose response assay to identify non-selective compounds using the VP16 reporter assay.; type: functional
[2] = biological target: SWI/SNF-related matrix-associated actin-dependent regulator of chromatin subfamily A member 2 (Homo sapiens, UniProt P51531); experiment: Luminescence-based cell-based high throughput dose response assay to identify activators of the function of SWI/SNF related, matrix associated, actin dependent regulator of chromatin, subfamily a, member 2 (SMARCA2, BRM).; type: functional
[3] = Luminescence Cell-Based Dose Confirmation HTS to Identify Inhibitors of Platelet Dense Granule Release. [Related pubchem assays: 1663 (Primary HTS), 1678 (Summary of Project)]; type: functional
[4] = biological target: Luciferin 4-monooxygenase (Photinus pyralis, UniProt P08659); experiment: inhibition of purified Photinus pyralis luciferase – biochemical, luminescence, dose response (AID 1891)
HEK293 [5] = experiment: cells; type: functional, cell-based; conditions: Homo sapiens
HEK293 [6] = experiment: NOD2 signaling inhibitors in MDP-stimulated cells, cell-based, uHTS, luminescence (AID 2001); type: functional; conditions: Homo sapiens
HEK293 [7] = experiment: cells; type: functional, cell-based; conditions: Homo sapiens; remark: listed apart in the source
HEK293 [8] = experiment: inhibition of NOD1-driven NF-kB reporter – cell-based, luminescence, uHTS, primary screen (AID 1578); type: functional; conditions: Homo sapiens
[9] = HIV-1 AD8 envelope cell-cell fusion blockers – cherry-pick, dose response (AID 652062); type: functional, cell-based;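 also: luciferase signal from cell-cell fusion driven by HIV-1 clade B AD8 Env; potency is for inhibitors of fusion seen as a drop in luminescence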
[10] = off-target signal loss in HeLa-CEM21 co-culture – HeLa F-luc CTL cells, cherry-picked, counter-screen for HIV-1 Env fusion inhibitor project, dose response (AID 652040); type: functional, cell-based;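 also: potency for signal decrease marking cytotoxic or nonspecific inhibition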
[11] = biological target: T1, Corticotropin-releasing factor receptor 2/Corticotropin-releasing factor-binding protein (Homo sapiens, UniProt P24387+Q13324); experiment: activators of CRF receptor 2 with binding protein – uHTS hits, confirmation (AID 602473); type: functional; conditions: read-out: EC50_Mean
T1 sequence (Q13324 whole entry): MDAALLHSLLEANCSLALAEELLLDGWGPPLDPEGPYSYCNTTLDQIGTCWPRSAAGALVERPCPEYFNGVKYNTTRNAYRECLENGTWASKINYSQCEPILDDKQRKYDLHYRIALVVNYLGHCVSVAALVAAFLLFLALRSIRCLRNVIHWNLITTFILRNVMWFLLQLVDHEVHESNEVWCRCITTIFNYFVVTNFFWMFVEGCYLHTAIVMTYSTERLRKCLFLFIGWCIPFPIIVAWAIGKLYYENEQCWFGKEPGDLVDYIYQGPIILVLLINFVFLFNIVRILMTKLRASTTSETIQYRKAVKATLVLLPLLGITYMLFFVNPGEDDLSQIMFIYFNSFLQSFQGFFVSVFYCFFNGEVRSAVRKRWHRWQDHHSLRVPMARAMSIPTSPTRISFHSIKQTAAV
T1 sequence (P24387 whole entry): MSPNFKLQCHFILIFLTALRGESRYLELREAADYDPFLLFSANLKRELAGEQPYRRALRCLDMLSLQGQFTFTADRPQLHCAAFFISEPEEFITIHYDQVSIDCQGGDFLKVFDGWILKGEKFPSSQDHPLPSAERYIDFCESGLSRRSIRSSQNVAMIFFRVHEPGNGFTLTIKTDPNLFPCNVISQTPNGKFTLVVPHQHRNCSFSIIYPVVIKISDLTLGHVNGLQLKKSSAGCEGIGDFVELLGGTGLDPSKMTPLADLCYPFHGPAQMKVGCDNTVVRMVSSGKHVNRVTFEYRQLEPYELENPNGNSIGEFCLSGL

[12] = blockers of HIV-1 envelope-mediated cell-cell fusion – cherry-pick, dose response (AID 652057); type: functional, cell-based
[13] = blockers of HIV-1 ZM109 envelope-driven cell-cell fusion – HeLa effector, CEM target cells, luciferase, cherry-pick, dose response (AID 652058); type: functional, cell-based;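 also: luciferase signal from HIV-1 Env mediated cell-cell fusion of effector and target cells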
HeLa = experiment: ATP-based viability loss in HeLa cells – cell-based, CellTiter-Glo luminescence, cherry-pick samples, cytotoxicity control for MITF activator project, dose response (AID 540259); type: functional; conditions: Homo sapiens
H4 = experiment: Luminescence Cell-Based Dose Response HTS to Identify Activators of 5'UTR Stem-Loop Driven Prion Protein mRNA Translation in H4 Neuroglioblastoma Cells. [Related pubchem assays: 1829 (Project Summary), 1814 (Primary HTS)]; type: functional; conditions: Homo sapiens
[14] = Luminescence Cell-Based Dose Response HTS to Identify Activators of Luciferase Translation or Activity in H4 […] Cells. [Related pubchem assays: 1829 (Project Summary), 1814 (Primary HTS)]; type: functional
Streptococcus = experiment: GAS UMAA2166 growth inhibition – luminescence, BacTiterGlo, counter-screen for streptokinase expression inhibitor project, dose response (AID 1915); type: functional, organism-based;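 also: potency for reduction of bacterial viability or growth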
cells = type: functional
[15] = test system: Streptococcus sp. 'group A'; experiment: Streptococcus pyogenes SK(-)GAS viability under kanamycin – luminescence, BacTiterGlo, confirmation, counter-screen for streptokinase expression inhibitor project, dose response (AID 1900); type: functional, organism-based
HEK293 [16] = experiment: EBV LMP1 TES2 canonical NF-kB signalling blockers – cell-based, HEK293, luciferase, cherry-pick, dose response (AID 588343); type: functional; conditions: Homo sapiens
[17] = NIH3T3 cell viability loss – ATP luminescence, mouse fibroblasts, counter-screen, dose response (AID 2010); type: functional, cell-based;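 also: cells exposed to compound for about 90 hours before reading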
[18] = Trypanosoma cruzi growth suppression in host cells – NIH3T3 host cells, beta-gal luminescence, confirmation (AID 2044); type: functional, cell-based;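 also: intracellular parasites grown in NIH/3T3 mouse fibroblasts as host cells; luminescent beta-galactosidase reporter signal from transgenic T. cruzi replicating inside host cells; inhibitors lower the luminescence signal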

Chain of SWI/SNF-related matrix-associated actin-dependent regulator of chromatin subfamily A member 2 (P51531 whole entry): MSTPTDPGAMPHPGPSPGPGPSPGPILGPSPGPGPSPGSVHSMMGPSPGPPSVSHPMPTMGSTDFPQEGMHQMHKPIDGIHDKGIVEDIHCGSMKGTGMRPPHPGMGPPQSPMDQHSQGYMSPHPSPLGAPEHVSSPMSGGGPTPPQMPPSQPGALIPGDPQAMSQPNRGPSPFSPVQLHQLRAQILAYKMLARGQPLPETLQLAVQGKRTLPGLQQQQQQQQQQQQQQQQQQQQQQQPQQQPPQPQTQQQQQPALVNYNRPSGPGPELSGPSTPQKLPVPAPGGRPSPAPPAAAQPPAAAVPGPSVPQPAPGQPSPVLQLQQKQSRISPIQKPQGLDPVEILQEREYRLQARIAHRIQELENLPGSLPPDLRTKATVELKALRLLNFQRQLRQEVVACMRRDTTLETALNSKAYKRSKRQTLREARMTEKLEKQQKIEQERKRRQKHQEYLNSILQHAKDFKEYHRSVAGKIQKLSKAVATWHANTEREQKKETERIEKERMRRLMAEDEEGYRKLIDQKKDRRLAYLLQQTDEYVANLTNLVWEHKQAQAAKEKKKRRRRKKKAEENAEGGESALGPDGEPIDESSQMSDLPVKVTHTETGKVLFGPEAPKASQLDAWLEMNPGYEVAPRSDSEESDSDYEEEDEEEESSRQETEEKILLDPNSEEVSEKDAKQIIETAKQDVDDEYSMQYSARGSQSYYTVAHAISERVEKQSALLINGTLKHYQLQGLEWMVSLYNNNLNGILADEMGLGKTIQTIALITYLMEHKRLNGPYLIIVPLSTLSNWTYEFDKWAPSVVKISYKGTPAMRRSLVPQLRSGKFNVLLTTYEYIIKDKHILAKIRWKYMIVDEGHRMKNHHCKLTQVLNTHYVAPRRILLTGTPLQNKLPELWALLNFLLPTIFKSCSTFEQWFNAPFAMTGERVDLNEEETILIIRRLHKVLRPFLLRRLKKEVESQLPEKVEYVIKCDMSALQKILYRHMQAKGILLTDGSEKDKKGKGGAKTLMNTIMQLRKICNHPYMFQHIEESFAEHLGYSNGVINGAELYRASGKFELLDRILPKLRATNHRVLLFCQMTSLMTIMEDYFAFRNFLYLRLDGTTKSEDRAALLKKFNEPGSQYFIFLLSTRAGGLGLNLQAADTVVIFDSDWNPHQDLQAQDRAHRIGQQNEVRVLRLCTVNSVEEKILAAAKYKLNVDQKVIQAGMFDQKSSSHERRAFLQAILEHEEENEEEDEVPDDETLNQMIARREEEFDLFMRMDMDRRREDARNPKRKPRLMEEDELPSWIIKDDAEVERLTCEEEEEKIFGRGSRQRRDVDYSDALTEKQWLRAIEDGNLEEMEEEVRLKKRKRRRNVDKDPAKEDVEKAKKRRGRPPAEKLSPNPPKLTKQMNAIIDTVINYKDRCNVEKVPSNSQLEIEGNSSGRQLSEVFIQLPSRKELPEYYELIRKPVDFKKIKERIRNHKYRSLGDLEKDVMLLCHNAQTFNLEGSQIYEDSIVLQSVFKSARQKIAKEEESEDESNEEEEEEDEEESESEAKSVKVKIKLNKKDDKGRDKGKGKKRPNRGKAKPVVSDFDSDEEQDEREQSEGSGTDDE
Chain of Luciferin 4-monooxygenase (P08659 whole entry): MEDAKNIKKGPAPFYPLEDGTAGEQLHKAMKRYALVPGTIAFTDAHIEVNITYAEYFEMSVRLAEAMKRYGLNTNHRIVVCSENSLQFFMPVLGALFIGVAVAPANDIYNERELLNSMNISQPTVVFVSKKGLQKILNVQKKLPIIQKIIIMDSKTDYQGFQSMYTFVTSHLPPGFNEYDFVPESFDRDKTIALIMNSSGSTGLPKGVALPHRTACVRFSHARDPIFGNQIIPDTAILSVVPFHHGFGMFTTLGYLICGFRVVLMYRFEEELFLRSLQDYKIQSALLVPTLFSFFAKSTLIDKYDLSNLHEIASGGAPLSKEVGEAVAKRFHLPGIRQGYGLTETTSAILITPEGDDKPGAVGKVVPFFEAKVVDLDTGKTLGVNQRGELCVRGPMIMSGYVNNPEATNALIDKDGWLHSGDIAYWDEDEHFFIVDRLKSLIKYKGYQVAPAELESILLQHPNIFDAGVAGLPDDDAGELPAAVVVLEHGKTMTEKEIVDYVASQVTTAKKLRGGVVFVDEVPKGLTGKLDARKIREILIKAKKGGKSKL

SMILES: CCN(CC)c1ccc(Nc2cc3n(c(=O)n2)CCc2cc(OC)c(OC)cc2-3)cc1
- EC50 [1]: > 91.2 µM (inactive)
- EC50 [2]: > 91.2 µM (inactive)
- EC50 [3]: > 112 µM (not active)
- EC50 [4]: > 112 µM (not active)

SMILES: COC(=O)c1ccc2c(O)nc(CCl)nc2c1
- IC50 (HEK293 [5]): > 20 µM (inactive)
- IC50 (HEK293 [6]): > 20 µM (inactive)
- IC50 (HEK293 [7]): > 20 µM (inactive)
- EC50 (HEK293 [8]): > 20 µM (inactive)

SMILES: CC1=CC(C)(C)N(C(=O)c2ccccc2)c2ccc(C)cc21
- AC50 [9]: 42.2 µM (active)
- AC50 [10]: 29.7 µM (active)
- EC50 [11]: 6.89 µM (active)
- AC50 [12]: 42.6 µM (active)
- AC50 [13]: 7.28 µM (active)

SMILES: COc1cccc(C(=O)Nc2nnc(-c3ccccc3)s2)c1
- AC50 (HeLa): 44.4 µM (active)

SMILES: Cc1cccc(OC(=O)c2sc3ncn(C)c(=O)c3c2C)c1
- EC50 (H4): 19.8 µM (active)
- EC50 [14]: > 120 µM (not active)
- EC50 (Streptococcus): 7.36 µM (active)
- AC50 (HeLa): > 350 µM (inactive)
- IC50 (cells): 2.87 µM (active)
- EC50 [15]: 2.85 µM (active)

SMILES: O=C(NC1CCCC1)c1cc(-c2ccc(Cl)cc2Cl)on1
- AC50 (HeLa): > 350 µM (inactive)

SMILES: C=CCn1c(SCc2csc(C)n2)nc2sc3c(c2c1=O)CCCC3
- AC50 (HEK293 [16]): 35.8 µM (active)

SMILES: CCS(=O)(=O)c1ccc2oc(Nc3ccccc3C)nc2c1
- AC50 (HeLa): 78.7 µM (active)

SMILES: Cc1ccc(S(=O)(=O)N2c3ccccc3-c3c(ssc3=S)C2(C)C)cc1
- EC50 [17]: > 60 µM (not active)
- AC50 (HEK293 [16]): 43.5 µM (active)
- EC50 [18]: 2.65 µM (active)
